The source of these data is patent US8952177B2 (Janssen Pharmaceutica NV, priority 2013, dated 2015).

One assay addresses human FLAP (Homo sapiens (Human), UniProt P20292). The assay is described as follows: FLAP binding assay (HTRF format). The conditions noted are these: human FLAP-containing Sf-9 membranes, 25 nM HTRF ligand, 2 h; average of runs; read-out: FLAP Binding wild type HTRF Ki. In a few lines: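 His6-tagged human FLAP in Sf-9 membranes competed against a FITC-labelled indole FLAP modulator in HTRF format; 2 h reaction, read as HTRF ratio. Ki and IC50 from averaged duplicate ratios over 2–20 runs of two plates each; parenthetical numbers give run count.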
For orientation: In TR-FRET formats the signal depends on donor and acceptor labels being close together.

The test system of assay [1] is leukotriene pathway in human whole blood (LTB4). The assay is described as follows: Human whole blood assay (LTB4 after calcium ionophore A23187 stimulation). Format: cell-based. To be noted: human whole blood diluted 1:1 in RPMI, 15 min pre-incubation, A23187 7 μg/mL for 30 min at 37° Celsius. In a few lines: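 Heparinised human whole blood, diluted 1:1 in RPMI, was preincubated with compound for 15 min at 37° C. before stimulation with A23187 (7 μg/mL) for 30 min. Plasma LTB4 was measured by immunoassay kit and IC50 obtained by 4-parameter fit; single replicate per plate, blood from at least one donor.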

pIC50, pKi: −log10 of the molar value.

Chain of human FLAP (P20292 whole entry): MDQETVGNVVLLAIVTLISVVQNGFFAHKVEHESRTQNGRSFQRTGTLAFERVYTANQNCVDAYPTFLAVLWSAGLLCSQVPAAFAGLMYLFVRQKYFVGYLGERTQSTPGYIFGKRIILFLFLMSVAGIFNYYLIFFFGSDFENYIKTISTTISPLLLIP

For orientation: pKi means the negative decadic logarithm of the Ki, by convention in mol/L. By pIC50 is commonly meant the IC50 on a negative log10 scale, so that one unit is a factor of ten. For the compound `CCC(CC)(Cc1nc2ccc(OCc3ncc(C)cc3F)cc2n1Cc1ccc(N2CCC(F)CC2)cc1)C(=O)O` [Example 182, 2-Ethyl-2-({6-[(3-fluoro-5-methylpyridin-2-yl)methoxy]-1-[4-(4-fluoropiperidin-1-yl)benzyl]-1H-benzimidazol-2-yl}methyl)butanoic acid], the negative-log Ki (pKi) at human FLAP was 7.96. Besides, the pIC50 in assay [1] (Homo sapiens) is 6.32.
The corresponding values for `Cc1cnc(COc2ccc3nc(CC(C)(C)C(=O)O)n(Cc4ccc(N5CC(C(F)(F)F)C5)cc4F)c3c2)c(F)c1` [Example 183, 3-(6-[(3-Fluoro-5-methylpyridin-2-yl)methoxy]-1-{2-fluoro-4-[3-(trifluoromethyl)azetidin-1-yl]benzyl}-1H-benzimidazol-2-yl)-2,2-dimethylpropanoic acid] are 7.89 and 6.06.
The corresponding values for `Cc1cnc(COc2ccc3nc(CC(C)(C)C(=O)O)n(Cc4ccc(N5CCC(C(C)(C)C)CC5)cc4)c3c2)c(F)c1` [Example 184, 3-{1-[4-(4-tert-Butylpiperidin-1-yl)benzyl]-6-[(3-fluoro-5-methylpyridin-2-yl)methoxy]-1H-benzimidazol-2-yl}-2,2-dimethylpropanoic acid] are 7.82 and 6.10.
The corresponding values for `Cc1cnc(COc2ccc3nc(CC(C)(C)C(=O)O)n(Cc4ccc(N5CCC(F)CC5)cc4F)c3c2)c(F)c1` [Example 186] are 7.52 and 6.15.
Regarding `CCC(CC)(Cc1nc2ccc(OCc3ccn(C)n3)cc2n1Cc1ccc(-c2ccc(C(F)(F)F)cc2)cc1F)C(=O)O` [Example 187], the pKi at human FLAP is 8.14. The negative logarithm of the IC50 (pIC50) in assay [1] (Homo sapiens) was 6.44.
Consider `CCC(CC)(Cc1nc2ccc(OCc3ccn(C)n3)cc2n1Cc1ccc(-c2ccc(C(F)(F)F)cc2)cc1F)C(=O)O` [Example 188], for which, on human FLAP, the pKi was 7.92. In assay [1], the negative logarithm of the IC50 (pIC50) is 6.26.
With `CCC(CC)(Cc1nc2ccc(OCc3ccn(C)n3)cc2n1Cc1ccc(N2CCC(C(F)(F)F)CC2)cc1)C(=O)O` [Example 190, 2-ethyl-2-((6-((1-methyl-1H-pyrazol-3-yl)methoxy)-1-(4-(4-(trifluoromethyl)piperidin-1-yl)benzyl)-1H-benzo[d]imidazol-2-yl)methyl)butanoic acid], the pKi at human FLAP was 6.68. Besides, in assay [1] (Homo sapiens), the pIC50 was 6.03.
